Data reported in paper PMC10094639, “Novel Antibiotic Resistance Genes Identified by Functional Gene Library Screening in Stenotrophomonas maltophilia and Chryseobacterium spp. Bacteria of Soil Origin” (International Journal of Molecular Sciences, 2023).
In brackets after ≈: the same amount, converted by molar mass.

Assays:
[1] = test system: C. aahli; experiment: organism not typed; parameters: Broth microdilution MIC (Sensititre plates, ARIS 2X) against soil bacterial isolates; conditions: soil
Text: (§1) Six Stenotrophomonas maltophilia and eight Chryseobacterium spp. antibiotic-resistant isolates were used for genomic library construction; all bacteria were isolated from farming field soil in Lithuania during the year 2016 [17, 65]. The isolates were designated as resistant if the MIC of antibiotic value matched EUCAST clinical breakpoints (v. 7.0, 2017, PK/PD (non-species related). Species were identified by matching obtained sequences with a sequence showing the highest maximum identity score from the GenBank database. If the identity of the best match was <99% and the query cover was <96%, only the genus was assigned. All environmental isolates were grown in LB medium at 28 °C. The bacteria were isolated from three farming fields in Lithuania during the year 2016 [17]. The sample collection points represented two different types of farming, i.e., organic and conventional (intensive); in all cases, the type of the soil was sandy loam. The organic farming sites were known not to use inorganic fertilizers or pesticides for a time period of over 20 years and were fertilized only with organic fertilizers (farmyard manure and slurry). Identification of bacterial isolates was based on 16S rRNA fragment sequencing as described previously. All six isolates of S. maltophilia were collected from a conventional winter wheat farming field. Antibiotic-resistant Chryseobacterium spp. isolates were recovered from various fields (conventional winter wheat, conventional rapeseed, and organic rapeseed). Two of the isolates were identified as C. aahli, and another two were identified as C. soldanellicola; for four of the isolates, only the genus could be assigned as Chryseobacterium spp. All selected isolates of S. maltophilia and Chryseobacterium spp. were resistant to at least two classes of antibiotics (β-lactams, aminoglycosides, and/or fluoroquinolones) (Table S1).

[2] = test system: C. soldanellicola; experiment: organism not typed; parameters: Broth microdilution MIC (Sensititre plates, ARIS 2X) against soil bacterial isolates; conditions: soil
Text: as §1

[3] = test system: Chryseobacterium sp.; experiment: microbe, parasite or virus in culture; parameters: Broth microdilution MIC (Sensititre plates, ARIS 2X) against soil bacterial isolates; conditions: Chryseobacterium
Text: as §1

[4] = test system: S. maltophilia; experiment: microbe, parasite or virus in culture; parameters: Broth microdilution MIC (Sensititre plates, ARIS 2X) against soil bacterial isolates; conditions: Stenotrophomonas maltophilia
Text: as §1

[5] = test system: T1, IND-17; experiment: UV-Vis spectrophotometry, initial hydrolysis rates, […] nm; type: biochemical, Chryseobacterium sp.; conditions: 50 mM HEPES pH 7.0, 50 µM ZnCl2, 22 °C
T1 construct: signal peptide removed; pET-28b (NcoI) in E. coli BL21 Tuner (DE3); no tag mentioned

[6] = test system: T1, IND-17; experiment: as above; type: biochemical, Chryseobacterium sp.; conditions: 50 mM HEPES pH 7.0, 50 µM ZnCl2, 22 °C; remark: listed apart in the source
[7] = test system: T2, CHM; experiment: as above; type: biochemical, Chryseobacterium sp.; conditions: 50 mM HEPES pH 7.0, 50 µM ZnCl2, 22 °C
T2 construct: signal peptide removed; pET-28b (NcoI) in E. coli BL21 Tuner (DE3); no tag mentioned

[8] = test system: T1, IND-17; experiment: as above; type: biochemical, Chryseobacterium sp.; conditions: 50 mM HEPES pH 7.0, 50 µM ZnCl2, 22 °C; remark: listed apart in the source
[9] = test system: T2, CHM; experiment: as above; type: biochemical, Chryseobacterium sp.; conditions: 50 mM HEPES pH 7.0, 50 µM ZnCl2, 22 °C; remark: listed apart in the source
[10] = test system: T2, CHM; experiment: as above; type: biochemical, Chryseobacterium sp.; conditions: 50 mM HEPES pH 7.0, 50 µM ZnCl2, 22 °C; remark: listed apart in the source
[11] = test system: T1, IND-17; experiment: as above; type: biochemical, Chryseobacterium sp.; conditions: 50 mM HEPES pH 7.0, 50 µM ZnCl2, 22 °C; remark: listed apart in the source
[12] = test system: T1, IND-17; experiment: as above; type: biochemical, Chryseobacterium sp.; conditions: 50 mM HEPES pH 7.0, 50 µM ZnCl2, 22 °C; remark: listed apart in the source
[13] = test system: T2, CHM; experiment: as above; type: biochemical, Chryseobacterium sp.; conditions: 50 mM HEPES pH 7.0, 50 µM ZnCl2, 22 °C; remark: listed apart in the source

Compound	MIC ([1]; Isolate No.=3-7-14) [µg/mL]	MIC ([1]; Isolate No.=3-12-27) [µg/mL]	MIC ([2]; Isolate No.=3-7-16) [µg/mL]	MIC ([2]; Isolate No.=4-6-16) [µg/mL]	MIC ([3]; Isolate No.=2-2-6) [µg/mL]	MIC ([4]; Isolate No.=2-1-3) [µg/mL]	MIC ([4]; Isolate No.=2-4-11) [µg/mL]	MIC ([4]; Isolate No.=2-12-28) [µg/mL]	MIC ([3]; Isolate No.=2-4-10) [µg/mL]	other results
NCC[C@H](O)C(=O)N[C@@H]1C[C@H](N)[C@@H](O[C@H]2O[C@H](CN)[C@@H](O)[C@H](O)[C@H]2O)[C@H](O)[C@H]1O[C@H]1O[C@H](CO)[C@@H](O)[C@H](N)[C@H]1O [Amikacin]	32 (≈ 54.6 µM)	≤ 8	32 (≈ 54.6 µM)	≤ 8	≤ 8	≤ 8	16 (≈ 27.3 µM)			MIC ([3]; Isolate No.=2-6-15): 32 µg/mL (≈ 54.6 µM); MIC ([4]; Isolate No.=2-8-21): 32 µg/mL (≈ 54.6 µM)
CC1(C)S[C@@H]2[C@H](NC(=O)[C@H](N)c3ccccc3)C(=O)N2[C@H]1C(=O)O [Ampicillin]										Km [5]: 470 ± 108 µM
C[C@H]1[C@H](NC(=O)/C(=N\OC(C)(C)C(=O)O)c2csc(N)n2)C(=O)N1S(=O)(=O)O [Aztreonam]	32 (≈ 73.5 µM)		32 (≈ 73.5 µM)	> 32	> 32	16 (≈ 36.7 µM)	≤ 8	32 (≈ 73.5 µM)		
Cc1nnc(SCC2=C(C(=O)O)N3C(=O)[C@@H](NC(=O)Cn4cnnn4)[C@H]3SC2)s1 [Cefazolin]	32 (≈ 70.4 µM)		32 (≈ 70.4 µM)	> 32	> 32	32 (≈ 70.4 µM)	> 32			Km [6]: 38 ± 12 µM; Km [7]: 167 ± 27 µM
CO/N=C(\C(=O)N[C@@H]1C(=O)N2C(C(=O)[O-])=C(C[N+]3(C)CCCC3)CS[C@H]12)c1csc(N)n1 [Cefepime]	8 (≈ 16.6 µM)	≤ 4	≤ 4		≤ 4	≤ 4		> 32		MIC ([4]; Isolate No.=2-12-31): 16 µg/mL (≈ 33.3 µM)
CO[C@@]1(NC(=O)C2SC(=C(C(N)=O)C(=O)O)S2)C(=O)N2C(C(=O)O)=C(CSc3nnnn3C)CS[C@@H]21 (some centres unmarked) [Cefotetan Na]	32 (≈ 55.6 µM)		32 (≈ 55.6 µM)	> 32	> 32	4 (≈ 6.95 µM)	≤ 8			
CO[C@@]1(NC(=O)Cc2cccs2)C(=O)N2C(C(=O)O)=C(COC(N)=O)CS[C@@H]21 [Cefoxitin]	32 (≈ 74.9 µM)		8 (≈ 18.7 µM)	16 (≈ 37.4 µM)	> 32	32 (≈ 74.9 µM)		> 32	32 (≈ 74.9 µM)	MIC ([3]; Isolate No.=2-6-15): 16 µg/mL (≈ 37.4 µM)
COCC1=C(C(=O)O)N2C(=O)[C@@H](NC(=O)/C(=N\OC)c3csc(N)n3)[C@H]2SC1 [Cefpodoxime]	16 (≈ 37.4 µM)		4 (≈ 9.36 µM)	8 (≈ 18.7 µM)	> 16	16 (≈ 37.4 µM)	> 16			
CC(C)(O/N=C(\C(=O)N[C@@H]1C(=O)N2C(C(=O)[O-])=C(C[n+]3ccccc3)CS[C@H]12)c1csc(N)n1)C(=O)O [Ceftazidime]	8 (≈ 14.6 µM)	4 (≈ 7.32 µM)	≤ 1		2 (≈ 3.66 µM)	4 (≈ 7.32 µM)	2 (≈ 3.66 µM)	8 (≈ 14.6 µM)	4 (≈ 7.32 µM)	Km [7]: 200 ± 41 µM
CO/N=C(\C(=O)N[C@@H]1C(=O)N2C(C(=O)O)=C(CSc3nc(=O)c(O)nn3C)CS[C@H]12)c1csc(N)n1 [Ceftriaxone]	64 (≈ 115 µM)		4 (≈ 7.21 µM)	8 (≈ 14.4 µM)	> 64	32 (≈ 57.7 µM)		> 64	64 (≈ 115 µM)	
CO/N=C(\C(=O)N[C@@H]1C(=O)N2C(C(=O)O)=C(COC(N)=O)CS[C@H]12)c1ccco1 [Cefuroxime]	32 (≈ 75.4 µM)		32 (≈ 75.4 µM)		> 32	32 (≈ 75.4 µM)	> 32			Km [6]: 30 ± 5.8 µM; Km [7]: 76 ± 19 µM
O=C(O)c1cn(C2CC2)c2cc(N3CCNCC3)c(F)cc2c1=O [Ciprofloxacin]	2 (≈ 6.04 µM)	≤ 0.5	≤ 0.5		≤ 0.5	1 (≈ 3.02 µM)		2 (≈ 6.04 µM)	1 (≈ 3.02 µM)	MIC ([4]; Isolate No.=2-8-21): ≤ 0.5 µg/mL
C[C@@H](O)[C@H]1C(=O)N2C(C(=O)O)=C(SCCN=CN)C[C@H]12 [Imipenem]	16 (≈ 53.4 µM)		4 (≈ 13.4 µM)		8 (≈ 26.7 µM)	16 (≈ 53.4 µM)	> 16		≤ 2	Km [8]: 185 ± 19 µM; Km [9]: 389 ± 48 µM; MIC ([3]; Isolate No.=2-8-20): 4 µg/mL (≈ 13.4 µM)
C[C@@H](O)[C@H]1C(=O)N2C(C(=O)O)=C(S[C@@H]3CN[C@H](C(=O)N(C)C)C3)[C@H](C)[C@H]12 [Meropenem]	8 (≈ 20.9 µM)		2 (≈ 5.22 µM)	4 (≈ 10.4 µM)	> 8	≤ 1	2 (≈ 5.22 µM)	> 8		Km [10]: 10 ± 2 µM; Km [11]: 258 ± 25 µM
O=C(Cc1cccs1)N[C@@H]1C(=O)N2C(C(=O)O)=C(/C=C/c3ccc([N+](=O)[O-])cc3[N+](=O)[O-])CS[C@H]12 [Nitrocefin]										Km [12]: 152 ± 4.7 µM; Km [13]: 153 ± 10 µM
O=C1CN(/N=C/c2ccc([N+](=O)[O-])o2)C(=O)N1 [Nitrofurantoin]	128 (≈ 537 µM)	64 (≈ 269 µM)	64 (≈ 269 µM)	≤ 16	64 (≈ 269 µM)	128 (≈ 537 µM)	> 128		32 (≈ 134 µM)	
CCN1CCN(C(=O)N[C@@H](C(=O)N[C@@H]2C(=O)N3[C@@H]2SC(C)(C)[C@@H]3C(=O)O)c2ccccc2)C(=O)C1=O [Piperacillin]	32 (≈ 61.8 µM)	≤ 16	≤ 16		32 (≈ 61.8 µM)	64 (≈ 124 µM)	≤ 16	32 (≈ 61.8 µM)	≤ 16	MIC ([3]; Isolate No.=2-6-15): 128 µg/mL (≈ 247 µM)
NC[C@H]1O[C@H](O[C@H]2[C@H](O)[C@@H](O[C@H]3O[C@H](CO)[C@@H](O)[C@H](N)[C@H]3O)[C@H](N)C[C@@H]2N)[C@H](N)C[C@@H]1O [Tobramycin]	8 (≈ 17.1 µM)		8 (≈ 17.1 µM)		> 8	≤ 4				MIC ([4]; Isolate No.=2-8-21): 8 µg/mL (≈ 17.1 µM)
